Assays:
p110β/p85 = p110β/p85 (Homo sapiens, UniProt P42338); assay: Inhibition of isolated enzyme (lipid kinase assay, [γ33P]ATP, TLC); assay type: biochemical; conditions: recombinant enzyme, 100 μM ATP, 1 hr room temperature, average of two experiments
Protocol: (§1) Compounds were evaluated for their ability to inhibit Class I PI 3-kinase enzymes p110δ/p85, p110α/p85, and p110β/p85. Reaction mixtures comprising 0.1 μg of a recombinant enzyme, 10 μg of L-α-phosphatidylinositol, and 2× Lipid Kinase Buffer (40 mM Tris-HCl, pH 7.4, 200 mM NaCl, 1 mM EDTA), which contains either DMSO only as a control or the test compound in DMSO (the final DMSO concentration is 1%), were activated by the addition of an ATP mix (5 mM MgCl2, 100 μM ATP, and 0.1 μL [γ^33P]ATP). Reactions were incubated at room temperature for 1 hr, and then stopped by the addition of 1M HCl. The lipids were then extracted using a two step procedure. Firstly, 200 μL of chloroform/methanol (1:1) was added, the biphasic reactions mixed and centrifuged briefly, and the inorganic phase was removed and discarded. Following this, 80 μL of methanol:HCl (1:1) was added and the same procedure followed. The organic phase (70 μL) was then transferred to a clean 1.6 mL tube and the reactions were dried using a Speedvac, with no heating, for […]. The reactions were spotted onto TLC plates (Merck Ltd) and developed for 1 hr in propanol-1:2 M acetic acid (13:7). The TLC plates were then dried at room temperature and quantified using a phosphorimager (StormImager, Amersham). Nine compound concentrations were used for each test compound to determine its IC50 value. Each experiment was performed twice and the average IC50 value is used herein.

p110α/p85 = p110α/p85 (Homo sapiens, UniProt P42336); assay: as above; assay type: biochemical; conditions: recombinant enzyme, 100 μM ATP, 1 hr room temperature, average of two experiments
Chain of p110α/p85 (P42336 whole entry): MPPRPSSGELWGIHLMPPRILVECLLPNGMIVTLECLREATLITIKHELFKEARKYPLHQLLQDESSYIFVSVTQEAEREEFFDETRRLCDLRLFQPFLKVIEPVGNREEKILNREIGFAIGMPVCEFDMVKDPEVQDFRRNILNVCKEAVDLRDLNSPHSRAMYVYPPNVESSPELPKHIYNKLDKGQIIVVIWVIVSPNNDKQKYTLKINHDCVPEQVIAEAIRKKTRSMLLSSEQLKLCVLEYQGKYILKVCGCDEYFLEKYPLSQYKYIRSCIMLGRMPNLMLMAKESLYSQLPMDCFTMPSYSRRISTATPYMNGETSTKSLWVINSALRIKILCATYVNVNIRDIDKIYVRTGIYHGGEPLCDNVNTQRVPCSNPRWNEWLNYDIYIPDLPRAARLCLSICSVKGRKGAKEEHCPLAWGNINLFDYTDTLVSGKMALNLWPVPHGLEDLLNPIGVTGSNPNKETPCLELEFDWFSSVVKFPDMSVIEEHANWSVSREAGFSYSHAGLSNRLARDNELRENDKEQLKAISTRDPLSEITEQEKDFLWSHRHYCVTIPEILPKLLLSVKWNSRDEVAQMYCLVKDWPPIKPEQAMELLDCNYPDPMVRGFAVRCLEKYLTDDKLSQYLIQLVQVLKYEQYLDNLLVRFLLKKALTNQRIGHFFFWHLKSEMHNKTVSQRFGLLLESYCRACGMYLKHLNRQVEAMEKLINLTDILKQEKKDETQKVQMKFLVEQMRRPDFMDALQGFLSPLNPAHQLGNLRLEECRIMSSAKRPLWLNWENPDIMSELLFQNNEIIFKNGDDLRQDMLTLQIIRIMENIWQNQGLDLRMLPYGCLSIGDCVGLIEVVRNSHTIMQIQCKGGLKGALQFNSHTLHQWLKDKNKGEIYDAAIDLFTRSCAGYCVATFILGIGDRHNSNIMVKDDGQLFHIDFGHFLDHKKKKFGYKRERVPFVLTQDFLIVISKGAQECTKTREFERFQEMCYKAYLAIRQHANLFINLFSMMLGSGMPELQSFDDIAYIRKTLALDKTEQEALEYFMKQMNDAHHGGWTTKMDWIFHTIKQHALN
Chain of p110α/p85 (P27986 whole entry partner): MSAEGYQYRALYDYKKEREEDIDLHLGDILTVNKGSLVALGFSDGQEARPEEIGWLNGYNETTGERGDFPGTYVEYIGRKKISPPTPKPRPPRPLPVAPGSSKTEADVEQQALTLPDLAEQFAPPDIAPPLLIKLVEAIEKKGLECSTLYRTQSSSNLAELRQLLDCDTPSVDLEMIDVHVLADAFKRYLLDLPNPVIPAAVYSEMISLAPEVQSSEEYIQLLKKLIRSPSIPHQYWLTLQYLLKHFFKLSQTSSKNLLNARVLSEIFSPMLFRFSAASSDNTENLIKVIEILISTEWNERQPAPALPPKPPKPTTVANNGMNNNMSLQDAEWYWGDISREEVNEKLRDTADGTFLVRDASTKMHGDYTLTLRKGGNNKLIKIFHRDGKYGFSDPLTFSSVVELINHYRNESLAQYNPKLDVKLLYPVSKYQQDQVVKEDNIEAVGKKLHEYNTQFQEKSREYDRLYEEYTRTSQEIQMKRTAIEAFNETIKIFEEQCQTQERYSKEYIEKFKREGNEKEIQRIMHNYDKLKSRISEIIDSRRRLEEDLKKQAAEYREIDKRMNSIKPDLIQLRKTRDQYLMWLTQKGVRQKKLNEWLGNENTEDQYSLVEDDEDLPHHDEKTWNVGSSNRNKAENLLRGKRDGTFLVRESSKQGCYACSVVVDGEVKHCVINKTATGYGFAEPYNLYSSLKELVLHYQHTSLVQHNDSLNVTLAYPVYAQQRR
Protocol: as §1

p110δ/p85 = p110δ/p85 (Homo sapiens, UniProt O00329); assay: as above; assay type: biochemical; conditions: recombinant enzyme, 100 μM ATP, 1 hr room temperature, average of two experiments
Chain of p110δ/p85 (O00329 whole entry, species assumed): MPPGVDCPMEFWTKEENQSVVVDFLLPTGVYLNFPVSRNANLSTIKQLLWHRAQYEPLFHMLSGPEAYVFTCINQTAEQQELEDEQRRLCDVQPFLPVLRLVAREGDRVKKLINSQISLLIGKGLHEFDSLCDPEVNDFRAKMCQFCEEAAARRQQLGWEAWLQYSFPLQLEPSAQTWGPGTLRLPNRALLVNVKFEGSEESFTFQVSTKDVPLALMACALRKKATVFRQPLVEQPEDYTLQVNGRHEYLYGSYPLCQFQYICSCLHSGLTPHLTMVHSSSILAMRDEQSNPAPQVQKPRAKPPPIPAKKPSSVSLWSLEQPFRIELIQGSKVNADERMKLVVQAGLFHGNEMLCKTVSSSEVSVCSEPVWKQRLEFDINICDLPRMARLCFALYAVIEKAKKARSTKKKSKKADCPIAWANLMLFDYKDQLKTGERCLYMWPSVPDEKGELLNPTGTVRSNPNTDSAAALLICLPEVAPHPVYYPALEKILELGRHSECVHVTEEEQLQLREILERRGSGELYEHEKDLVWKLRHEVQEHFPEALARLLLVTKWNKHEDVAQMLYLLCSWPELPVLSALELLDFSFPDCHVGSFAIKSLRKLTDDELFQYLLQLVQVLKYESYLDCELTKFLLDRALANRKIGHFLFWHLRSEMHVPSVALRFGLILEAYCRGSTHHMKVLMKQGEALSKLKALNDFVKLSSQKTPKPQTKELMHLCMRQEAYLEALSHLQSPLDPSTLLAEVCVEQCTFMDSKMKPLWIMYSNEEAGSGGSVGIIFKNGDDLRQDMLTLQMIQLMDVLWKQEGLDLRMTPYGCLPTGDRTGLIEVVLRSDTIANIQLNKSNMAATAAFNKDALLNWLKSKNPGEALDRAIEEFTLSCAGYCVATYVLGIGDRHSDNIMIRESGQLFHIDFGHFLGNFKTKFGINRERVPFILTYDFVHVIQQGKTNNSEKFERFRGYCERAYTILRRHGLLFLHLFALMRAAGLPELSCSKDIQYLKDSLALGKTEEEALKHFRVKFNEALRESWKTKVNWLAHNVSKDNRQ
Chain of p110δ/p85 (P27986 whole entry partner, species assumed): as the sequence (P27986 whole entry partner) above
Protocol: as §1

NZB5 = assay: Cellular growth inhibition (3H-thymidine incorporation); assay type: cell-based; conditions: Homo sapiens, five days incubation, 3H-thymidine over the last 6 hrs, read-out: Cell IC50* NZB5
Protocol: (§2) The compounds were evaluated against two early passage human cell lines NZB5 and NZOV9 (Marshall et al., Oncol. Res. 2004, 14, 297). The cells were grown in ITS medium (α-modified minimal essential medium supplemented insulin, transferrin, selenite, and 5% fetal bovine serum) and grown on 96-well tissue culture plates under an atmosphere of 5% O2, 5% CO2, and 90% N2. Individual wells contained 500-1,000 cells (depending on the growth rate) in a volume of 150 μL. Compounds were added at 10-fold concentration steps to a maximum of 20 μM and plates were incubated for five days, with ^3H-thymidine being added over the last 6 hrs. Cells were harvested and incorporated radioactivity measured. Duplicate samples were analyzed for each compound dose with multiple control samples. Data were fitted by a least-squares method to an exponential of the form y=y0+ae^−bx, where y is the radioactivity (corrected for background and normalized to 100% of the control), x is the […], and y0, a, and b are variables, and the IC50 value defined as the compound concentration reducing ^3H-thymidine levels by 50%.

NZOV9 = assay: as above; assay type: cell-based; conditions: Homo sapiens, five days incubation, 3H-thymidine over the last 6 hrs, read-out: Cell IC50* NZOV9
Protocol: as §2

Chain of p110β/p85 (P42338 whole entry, species assumed): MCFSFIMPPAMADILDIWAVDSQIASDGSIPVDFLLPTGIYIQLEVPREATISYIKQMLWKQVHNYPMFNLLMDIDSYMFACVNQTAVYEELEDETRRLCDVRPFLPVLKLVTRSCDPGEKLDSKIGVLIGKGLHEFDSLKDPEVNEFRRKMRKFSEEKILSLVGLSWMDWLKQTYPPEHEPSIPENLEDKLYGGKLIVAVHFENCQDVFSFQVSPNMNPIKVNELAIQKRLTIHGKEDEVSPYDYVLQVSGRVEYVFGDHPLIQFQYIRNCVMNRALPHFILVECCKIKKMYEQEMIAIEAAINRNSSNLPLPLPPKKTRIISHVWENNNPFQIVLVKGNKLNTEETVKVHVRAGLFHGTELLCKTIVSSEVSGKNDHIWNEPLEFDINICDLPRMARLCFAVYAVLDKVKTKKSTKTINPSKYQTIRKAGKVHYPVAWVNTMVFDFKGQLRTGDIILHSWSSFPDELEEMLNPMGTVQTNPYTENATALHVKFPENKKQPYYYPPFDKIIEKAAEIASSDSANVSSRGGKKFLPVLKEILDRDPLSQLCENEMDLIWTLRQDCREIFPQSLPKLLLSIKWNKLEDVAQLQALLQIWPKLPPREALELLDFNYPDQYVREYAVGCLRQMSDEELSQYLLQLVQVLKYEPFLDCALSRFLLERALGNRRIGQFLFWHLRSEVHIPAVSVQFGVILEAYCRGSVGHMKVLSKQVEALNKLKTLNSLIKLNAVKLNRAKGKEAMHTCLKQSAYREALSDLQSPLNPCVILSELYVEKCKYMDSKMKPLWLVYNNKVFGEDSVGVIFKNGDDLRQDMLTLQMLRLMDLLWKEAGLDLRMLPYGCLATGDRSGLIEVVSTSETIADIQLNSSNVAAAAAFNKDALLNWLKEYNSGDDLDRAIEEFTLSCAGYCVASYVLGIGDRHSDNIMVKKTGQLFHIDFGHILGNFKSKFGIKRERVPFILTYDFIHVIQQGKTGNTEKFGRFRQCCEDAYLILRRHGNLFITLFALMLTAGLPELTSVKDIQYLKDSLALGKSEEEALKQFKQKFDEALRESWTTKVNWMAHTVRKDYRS
Chain of p110β/p85 (P27986 whole entry partner, species assumed): as the sequence (P27986 whole entry partner) above

Row | IC50 (p110β/p85) [nM] | IC50 (p110α/p85) [nM] | IC50 (p110δ/p85) [nM] | melting point [°C] | SMILES | IC50 (NZB5) [nM] | IC50 (NZOV9) [nM]
1 | < 100 | < 100 | < 100 | 200 to 201 | COc1cccc2c1nc(C(F)F)n2-c1nc(N2CCOCC2)nc(N(C)c2cccnc2)n1 [Example 3, 4-[2-(difluoromethyl)-4-methoxy-1H-benzimidazol-1-yl]-N-methyl-6-(4-morpholinyl)-N-(3-pyridinyl)-1,3,5-triazin-2-amine] | 100 to 1000 | < 100
2 | 1000 to 10000 | 1000 to 10000 | 100 to 1000 | 240 to 241 | CSc1nc2ccccc2n1-c1nc(Nc2cccnc2)nc(N2CCOCC2)n1 [Example 4, 4-[2-(methylsulfanyl)-1H-benzimidazol-1-yl]-6-(4-morpholinyl)-N-(3-pyridinyl)-1,3,5-triazin-2-amine] | < 100 | 100 to 1000
3 | 100 to 1000 | 100 to 1000 | < 100 | 208 to 211 | CS(=O)(=O)c1nc2ccccc2n1-c1nc(Nc2cccnc2)nc(N2CCOCC2)n1 [Example 5, 4-[2-(methylsulfonyl)-1H-benzimidazol-1-yl]-6-(4-morpholinyl)-N-(3-pyridinyl)-1,3,5-triazin-2-amine] | 100 to 1000 | 100 to 1000
4 | 100 to 1000 | 100 to 1000 | < 100 | 171 to 174 | FC(F)c1nc2ccccc2n1-c1nc(Nc2ccccc2)nc(N2CCOCC2)n1 [Example 6, 4-[2-(difluoromethyl)-1H-benzimidazol-1-yl]-6-(4-morpholinyl)-N-phenyl-1,3,5-triazin-2-amine] | 100 to 1000 | 100 to 1000
5 | 100 to 1000 | 100 to 1000 | 100 to 1000 | 160 to 162 | CN(c1ccccc1)c1nc(N2CCOCC2)nc(-n2c(C(F)F)nc3ccccc32)n1 [Example 7, 4-[2-(difluoromethyl)-1H-benzimidazol-1-yl]-N-methyl-6-(4-morpholinyl)-N-phenyl-1,3,5-triazin-2-amine] | 100 to 1000 | 100 to 1000
6 | < 100 | 100 to 1000 | < 100 | 185 to 188 | FC(F)c1nc2ccccc2n1-c1nc(NCc2ccccc2)nc(N2CCOCC2)n1 [Example 8, N-benzyl-4-[2-(difluoromethyl)-1H-benzimidazol-1-yl]-6-(4-morpholinyl)-1,3,5-triazin-2-amine] | 100 to 1000 | 100 to 1000
7 | > 10000 | > 10000 | 1000 to 10000 | 228 to 231 | FC(F)c1nc2ccccc2n1-c1nc(Oc2ccccc2)nc(N2CCOCC2)n1 [Example 10, 2-(difluoromethyl)-1-[4-(4-morpholinyl)-6-phenoxy-1,3,5-triazin-2-yl]-1H-benzimidazole] | > 10000 | 1000 to 10000
8 | > 10000 | > 10000 | 1000 to 10000 | 245 to 248 | FC(F)c1nc2ccccc2n1-c1nc(Sc2ccccc2)nc(N2CCOCC2)n1 [Example 11, 2-(difluoromethyl)-1-[4-(4-morpholinyl)-6-(phenylsulfanyl)-1,3,5-triazin-2-yl]-1H-benzimidazole] | > 10000 | > 10000
9 | 1000 to 10000 | 1000 to 10000 | 1000 to 10000 | 237 to 239 | O=S(=O)(c1ccccc1)c1nc(N2CCOCC2)nc(-n2c(C(F)F)nc3ccccc32)n1 [Example 12, 2-(difluoromethyl)-1-[4-(4-morpholinyl)-6-(phenylsulfonyl)-1,3,5-triazin-2-yl]-1H-benzimidazole] | > 10000 | > 10000
10 | < 100 | < 100 | < 100 | 192 to 193 | FC(F)c1nc2ccccc2n1-c1nc(NCc2ccccn2)nc(N2CCOCC2)n1 [Example 13, 4-[2-(difluoromethyl)-1H-benzimidazol-1-yl]-6-(4-morpholinyl)-N-(2-pyridinylmethyl)-1,3,5-triazin-2-amine] | 100 to 1000 | 100 to 1000
11 | 100 to 1000 | 100 to 1000 | < 100 | 160 to 161 | FC(F)c1nc2ccccc2n1-c1nc(NCc2cccnc2)nc(N2CCOCC2)n1 [Example 14, 4-[2-(difluoromethyl)-1H-benzimidazol-1-yl]-6-(4-morpholinyl)-N-(3-pyridinylmethyl)-1,3,5-triazin-2-amine] | 1000 to 10000 | 100 to 1000
12 | 100 to 1000 | < 100 | < 100 | 222 to 224 | FC(F)c1nc2ccccc2n1-c1nc(Nc2ccncc2)nc(N2CCOCC2)n1 [Example 17, 4-[2-(difluoromethyl)-1H-benzimidazol-1-yl]-6-(4-morpholinyl)-N-(4-pyridinyl)-1,3,5-triazin-2-amine] | < 100 | < 100
13 | 100 to 1000 | < 100 | < 100 | 271 to 273 | FC(F)c1nc2ccccc2n1-c1nc(Nc2cccnn2)nc(N2CCOCC2)n1 [Example 23, 4-[2-(difluoromethyl)-1H-benzimidazol-1-yl]-6-(4-morpholinyl)-N-(3-pyridazinyl)-1,3,5-triazin-2-amine] | 100 to 1000 | 100 to 1000
14 | 100 to 1000 | < 100 | < 100 | 225 to 226 | Cn1cc(Nc2nc(N3CCOCC3)nc(-n3c(C(F)F)nc4ccccc43)n2)cn1 [Example 25, 4-[2-(difluoromethyl)-1H-benzimidazol-1-yl]-N-(1-methyl-1H-pyrazol-4-yl)-6-(4-morpholinyl)-1,3,5-triazin-2-amine] | 100 to 1000 | 100 to 1000
15 | 100 to 1000 | < 100 | < 100 | 161 to 163 | COc1ccncc1Nc1nc(N2CCOCC2)nc(-n2c(C(F)F)nc3ccccc32)n1 [Example 26, 4-[2-(difluoromethyl)-1H-benzimidazol-1-yl]-N-(4-methoxy-3-pyridinyl)-6-(4-morpholinyl)-1,3,5-triazin-2-amine] | 100 to 1000 | 100 to 1000
16 | 100 to 1000 | < 100 | < 100 | 239 to 241 | COc1ccncc1Nc1nc(N2CCOCC2)nc(-n2c(C(F)F)nc3c(OC)cccc32)n1 [Example 27, 4-[2-(difluoromethyl)-4-methoxy-1H-benzimidazol-1-yl]-N-(4-methoxy-3-pyridinyl)-6-(4-morpholinyl)-1,3,5-triazin-2-amine] | 100 to 1000 | < 100
17 | < 100 | < 100 | < 100 | 201 to 202 | COc1ccc(Nc2nc(N3CCOCC3)nc(-n3c(C(F)F)nc4c(OC)cccc43)n2)cn1 [Example 28, 4-[2-(difluoromethyl)-4-methoxy-1H-benzimidazol-1-yl]-N-(6-methoxy-3-pyridinyl)-6-(4-morpholinyl)-1,3,5-triazin-2-amine] | < 100 | < 100
18 | 100 to 1000 | < 100 | < 100 | 261 to 263 | COc1cccc2c1nc(C(F)F)n2-c1nc(Nc2ccc(F)nc2)nc(N2CCOCC2)n1 [Example 29, 4-[2-(difluoromethyl)-4-methoxy-1H-benzimidazol-1-yl]-N-(6-fluoro-3-pyridinyl)-6-(4-morpholinyl)-1,3,5-triazin-2-amine] | < 100 | < 100
19 | 100 to 1000 | < 100 | < 100 | 260 to 262 | COc1cccc2c1nc(C(F)F)n2-c1nc(Nc2ccc(Cl)nc2)nc(N2CCOCC2)n1 [Example 30, N-(6-chloro-3-pyridinyl)-4-[2-(difluoromethyl)-4-methoxy-1H-benzimidazol-1-yl]-6-(4-morpholinyl)-1,3,5-triazin-2-amine] | < 100 | < 100
